# Results reported in patent US11260083B2, “Compositions and methods for treating and preventing graft versus host disease” (The Regents of the University of Michigan, priority 2016, dated 2022).
# Assays:
# [1] = system: IEC junction; assay: Transmission electron microscopy of intestines, ruthenium red; format: in vivo, mouse; conditions: day 7 and day 21; allo-BMT recipients, intragastric butyrate
# From the text: Samples were stained as previously described (Soler, A. P. et al. Increased tight junctional permeability is associated with the development of colon cancer. Carcinogenesis 20, 1425-1431 (1999)). Briefly, the intestines from mice that received butyrate or vehicle treatment were harvested 7 days and 21 days following syngeneic and allogeneic BMT and flushed with 0.1 M Sorensen's phosphate buffer (pH 7.4) to remove luminal contents using a 20G needle. The intestines were next gently flushed with 0.1% ruthenium red (RR) containing 2.5% glutaraldehyde fixative in Sorensen's buffer and immediately placed in a dish containing the stain/fixative. Cross sections were immediately sliced (2 mm wide) from the duodenum, jejunum, and illium. The tissue was then rinsed three times with Sorensen's buffer, containing 0.1 percent RR and post-fixed for one hour in one percent osmium tetroxide in the same buffer containing RR. […] Images were recorded digitally using a Hamamatsu ORCA-HR digital camera system operated using AMT software (Advanced Microscopy Techniques Corp., Danvers, Mass.).
# Intestinal permeability after allo-BMT was assessed by intragastric administration of FITC-dextran, a non-metabolized carbohydrate (Hanash, A. M. et al. Interleukin-22 protects intestinal stem cells from immune-mediated tissue damage and regulates sensitivity to graft versus host disease. Immunity 37, 339-350 (2012)).
# [2] = system: primary CD326+ IECs; assay: Chromatin immunoprecipitation (acetylated histone-H4) of primary CD326+ IECs; format: cell-based, mouse
# Method: Primary CD326+ IECs were seeded on gelatin (Cell Biologics; Chicago, Ill.) coated cell culture dishes (100 mm) overnight followed by treatment with butyrate 1 mM for 24 hours. Cells were harvested and used for ChIP analysis using EZ-Magna ChIP kit from EMD Millipore (Billerica, Mass.) following the manufacturers instructions. Briefly, cells were cross-linked with 1% formaldehyde and extracted chromatin was sonicated using a Bioruptor Pico by Diagenode (Denville, N.J.) to yield DNA fragments predominately in the range of 200-1000 bp. Sonicated lysates were immunoprecipitated (IP) utilizing ChIP grade specific antibodies purchased from EMD Millipore for acetylated histone-H4 and RNA Pol II or IgG control antibody. De-crosslinked DNA was next examined by qPCR using primers targeting the promoter region of the target gene BCL-B (Bcl2110) (Forward: […] (SEQ ID NO:50); Reverse: […] (SEQ ID NO:51)), Slc5a8 (Forward: […] (SEQ ID NO:52); Reverse: […] (SEQ ID NO:53), and JAM (F11r) (Forward: […] (SEQ ID NO:54; Reverse: […] (SEQ ID NO:55)). IP efficiency of all samples was verified by qPCR analysis of the promoter region of Gapdh (Forward: […] (SEQ ID NO:56); Reverse: […] (SEQ ID NO:57)). Data analysis was determined as percent of input utilizing the equations: ΔCt[normalized ChIP]=(Ct[ChIP]−(Ct[Input]−[…])) and % Input=2(−ΔCt [normalized ChIP]).
# [3] = system: C3H.SW (H-2b) → C57BL/6J (H-2b) BMT recipients; assay: MHC-matched, minor antigen mismatched BMT model with butyrate; format: in vivo, mouse
# Method: BMTs were performed as previously described (Reddy, P. et al. A crucial role for antigen-presenting cells and alloantigen expression in graft-versus-leukemia responses. Nat. Med. 11, 1244-1249 (2005); 15). Briefly, syngeneic (BALB/c→BALC/c or C57BL/6J→C57BL/6J) and allogeneic (C57BL/6J→BALB/c or C3H.sw→C57BL/6J) recipients received lethal irradiation. On day −1, BALB/c recipients received a total of 800 cGy of irradiation (split dose separated by 3 hours) and B6 animals received a single dose of 1000 cGy. […] Survival was monitored daily and the recipient body weight and GVHD clinical scores were determined weekly, as described previously42. […]
# Systemic administration of HDACi decreases acute GVHD (Reddy, P. et al. Histone deacetylase inhibitor suberoylanilide hydroxamic acid reduces acute graft-versus-host disease and preserves graft-versus-leukemia effect. Proc Natl Acad Sci USA 101, 3921-3926 (2004); Reddy, P. et al. Histone deacetylase inhibition modulates indoleamine 2,3-dioxygenasedependent DC functions and regulates experimental graft-versus-host disease in mice. J. Clin. Invest. 118, 2562-2573 (2008); Sun, Y. et al. Cutting edge: Negative regulation of dendritic cells through acetylation of the nonhistone protein STAT-3. J Immunol 182, 5899-5903 (2009)). It was therefore determined if increasing local levels of endogenous HDACi, butyrate, would impact GVHD severity. […]
smiles,measurement,setting,value
"CCCC(=O)[O-].[Na+] [butyrate, sodium butyrate]",integrity of the IEC junction (TEM),[1],preserved
same,association of acetylated histone H4 in the promoter region of Slc5a8,[2]; IECs (CD326+) treated with butyrate 1 mM 24 hours,increased association
same,acetylation of histone H4 at the promoter region of Bcl2110,[2]; butyrate treated IECs (CD326+),associated with the promoter region
same,acetylation of histone H4 at the promoter region of F11r,[2]; butyrate treated IECs (CD326+),associated with the promoter region
same,histological scores in both the intestines and liver,"[3]; 21 days following BMT, minor antigen mismatch",decreased histological scores
same,survival,[3]; minor antigen mismatched model,improved survival
